Laboratory results as given in patent US12539284B2, “Aminoxy acid-based anti-cancer stem cell compounds and methods thereof” (Westlake University, priority 2019, dated 2026).
Like-named read-outs stand apart in the source and are kept apart here.

Experiments:
[1] = tested on: SKOV3 CSCs (SKOV3 SP); assay: Cell viability (CellTiter-Glo) on SKOV3 spheres (CSCs); assay type: cell-based, human; details: read-out: IC50 Cancer Stem Cell SKOV3 SP
Method: Cell Cultures Human ovarian carcinoma cell lines HEY A8 and SKOV3 were gifts from Professor Alice Wong's group (The University of Hong Kong). Cells were grown in Dulbecco's Modified Eagle (DMEM) medium supplemented with 10% FBS and 1% penicillin/streptomycin at 37° C. in a humidified atmosphere containing […] CO2. Isolation and culture of spheres were performed in serum-free stem-cell-selective condition as described in literature Ip etl. Oncogene 2014, 5, 9133-9149. Briefly, 1-2 weeks after plating, non-adherent spherical clusters of cells could be observed and were separated from single cells by low speed centrifugation. After 8th to 10th passages, the non-adherent spherical clusters of cells appeared as distinct spheres. Using this selection condition, HEY A8 spheres (HEY A8 SP) or SKOV3 spheres (SKOV3 SP) could be enzymatically dissociated and reformed into spheres within 3 days under stem-cell-selective condition. To allow differentiation, dissociated sphere cells were plated on tissue culture plates in medium (MCDB 105:M199=1:1) supplemented with 10% FBS and 1% PS.
HEY A8 SP cells or SKOV3 SP cells (5×10^4) were plated in triplicate in 10 mL serum-free MCDB105 medium in 100-mm Petri dish for 7 days to form spheres. […] After that, the reagent was transferred into 96-well plates and cell viability was measured using a microplate reader (SpectraMax 340PC 384, Molecular Devices).

[2] = tested on: HEY A8 cells; assay: Population of CD133+ cells by flow cytometry (PE-conjugated CD133 antibody); assay type: cell-based, human; details: 15 μM; for population of CD133+ cells after treatment: control 21.8%
Method: CD133 has been reported to be a marker of ovarian CSCs. After cells treated with synthetic molecule, the population of CD133^+ cells were measured. HEY A8 cells were treated with taxol (100 nM), compound sff-2-112 (“Example 1”) or sff-2-132 (“Example 4”) at the concentration of 15 μM. Medium containing 0.1% DMSO was used as a negative control.
A suspension of HEY A8 cells at the concentration of 2.5×10^4 cells/mL in DMEM medium were seeded into 60-mm cell culture dishes. Cells were incubated at 37° C. in a humidified atmosphere containing 5% CO2 for 24 h, followed by the addition of 4 mL fresh medium or medium containing Paclitaxel (100 nM), sff-2-112 (15 μM) or compound sff-2-132 (15 μM). Medium containing 0.1% DMSO was used as a negative control. After 3 days, the medium was removed and cells were washed with cold PBS twice, and then stained with PE-conjugated CD133 antibody according to the manufacture's instruction. The fluorescence was analyzed by flow cytometry.

[3] = tested on: Adherent Hey A8 cells; assay: Cell respiration, oxygen consumption rate (Seahorse XF24); assay type: cell-based, human; details: FIG. 10; for cell respiration response to subsequent addition of FCCP, antimycin A and rotenone: more obvious at higher doses
Method: Cell respiration was measured by using an XF24 Extracellular Flux Analyzer (Seahorse, Bioscience), which measures the oxygen consumption rate (OCR). Adherent Hey A8 cells were seeded at 50000 cells/well in […] of their culture medium and incubated for 24 h at 37° C. in humidified atmosphere with 5% CO2. The medium was then replaced with 670 μL/well of high-glucose DMEM without serum and supplemented with 1 mM sodium pyruvate and 2 mM L-glutamine. The oxygen consumption rate (OCR) was measured with an extracellular flux analyzer (Seahorse) at preset time intervals upon the preprogrammed additions of the following compounds: Oligomycin to 1 μM, FCCP to 500 nM, Antimycin A and Rotenone to 0.5 μM final concentrations.

[4] = tested on: Huh 7 cancer stem cells (CD133+); assay: Cell viability (CellTiter-Glo) of sorted Huh 7 CD133+ cells; assay type: cell-based; details: 48 h, different doses
Method: (§1) Huh-7 cells were stained with PE-conjugated CD133 antibody (HCC cancer stem cell marker) according to the manufacturer's instructions. Then CD133^+ cells (Huh 7 cancer stem cells) and CD133− cells were sorted by flow cytometry and seeded into 96-well plate with fresh DMEM medium. After 24 h, medium was changed to fresh medium with compound sff-2-112 (“Example 1”) or sff-2-124 (“Example 3”) at different doses. After 48 h, cell viability was analyzed by CellTiter-Glo luminescent agent.

[5] = tested on: Huh 7 CD133- cells; assay: Cell viability (CellTiter-Glo) of sorted Huh 7 CD133- cells; assay type: cell-based; details: 48 h, different doses
Method: as §1

SMILES: O=C(NO[C@H](COCc1ccccc1)C(=O)Nc1ccccc1)c1cc(C(F)(F)F)cc(C(F)(F)F)c1 [sff-2-112]
- IC50 ([1]; 48 h incubation): 900 ± 900 nM
- population of CD133+ cells relative to DMSO treated group [2]: significantly reduced the population of CD133^+ cells
- population of CD133+ cells after treatment ([2]; 3 days): 12.6%
- OCR after addition of compound [3]: OCR immediately increased
- cell respiration response to subsequent addition of FCCP, antimycin A and rotenone [3]: significantly decreased
- death of Huh 7 CD133+ cells [4]: induce the death
- death of Huh 7 CD133- cells [5]: induce the death

SMILES: CC(C)(C)OC(=O)[C@@H](COCc1ccccc1)ONC(=O)c1cc(C(F)(F)F)cc(C(F)(F)F)c1 [sff-2-132]
- IC50 ([1]; Homo sapiens, SK-OV-3, 48 h incubation): 1000 ± 900 nM
- population of CD133+ cells relative to DMSO treated group [2]: significantly reduced the population of CD133^+ cells
- decrease of CD133+ population ([2]; 3 days, from 21.8%): around 10 fold
- population of CD133+ cells after treatment ([2]; 3 days): 1.9%
- OCR after addition of compound [3]: OCR immediately increased
- cell respiration response to subsequent addition of FCCP, antimycin A and rotenone [3]: significantly decreased
